Assay [1] has as its system apoptotic marker transcripts in NSCLC cell lines. The assay is described as follows: qRT-PCR of pro- and anti-apoptotic transcripts. The format is cell-based, mouse (LLC), human (H1650, A549). The protocol: FIGS. 1A-lE depict that WFA induces ER stress-mediated apoptosis in NSCLC cell lines. (FIG. 1A) NSCLC cells were plated on 96-well plates and treated with different concentrations of WFA ([…]) in triplicates. Forty-eight hours post-treatment, cell viability was determined using Cell Titer-Glo assay. Luminescence values were normalized to control untreated cells and IC50 values are represented as the mean of two independent experiments ±SEM. (FIG. 1B) NSCLC cells were treated WFA for forty-eight hours, then collected to measure apoptotic cell death using Annexin V assay in LLC cells, H1650 cells, and A549 cells. Percentages of early (annexin*DAPI-) and late (annexin*DAPI+) apoptotic cells are represented as means of two separate experiments ±SEM and statistical significance was calculated using one-way ANOVA and a Fisher LSD post hoc test was used to compare the mean of each group to that of the control group. (FIGS. 1C-1D) WFA treated cells were collected in Trizol and total RNA was isolated to measure the levels of Bax (FIG. 1C) and Bcl2 (FIG. 1D) mRNA using qRT-PCR. PCR experiments were repeated at least twice, and one representative experiment is shown as mean±SEM of the technical replicates. (FIG. 1E) Western blot of ER stress markers p-eIF-2 and CHOP was performed using total lysates of WFA-treated LLC cells. The quantification of western blot band density was performed using Image J software v.1.54d and normalized to housekeeping control protein in LLC cells (0-actin). […] Data were obtained from two independent experiments.
FIGS. 7A-7I depict qRT-PCR analysis of the change in expression of pro-apoptotic and anti-apoptotic induced by WFA treatment. WFA increased the mRNA levels of proapoptotic protein Bak-1 in (FIG. 7A) LLC cells and BAD in (FIG. 7C) H1650 cells. […] PCR was repeated twice, and one representative experiment is shown as mean±SEM of 3 technical replicates. […] (FIGS. 7G-7I) Western blots.
(§1) Total cellular RNA was isolated from collected cell pellets using TRIzol reagent (Invitrogen, Waltham, MA, USA) and then quantified using the 2000 Nanodrop spectrophotometer (Thermo Fisher Scientific, Waltham, MA, USA). cDNA synthesis was performed using the Verso cDNA synthesis kit (Thermo Fisher Scientific, Waltham, MA, USA). qPCR was then performed using Forget-Me-Not EvaGreen qPCR Master Mix (Biotium, Fremont, CA, USA) in a Bio-Rad CFX384 thermocycler according to the manufacturer's instructions. The CFX Maestro software version 2.3 (Bio-Rad, Hercules, CA, USA) was used to calculate the ΔCt and ΔΔCt values and gene expression was normalized to housekeeping genes glyceraldehyde 3-phosphate dehydrogenase (GAPDH) or β-actin. The sequences of PCR primers used are listed in Table 2 (Integrated DNA Technologies, Inc, Coralville, IA, USA).
On the technique in general: In qPCR the cycle at which signal appears reflects the starting amount.

Assay [2] has as its system IFN-α mRNA in LLC and H1650 cells. The assay is described as follows: IFN-α qRT-PCR. The assay is classed as cell-based, mouse (LLC), human (H1650). The procedure:
ROS is the main regulator of WFA-induced PD-L1 upregulation. […] All cells were treated with 0.6 μM WFA except A549, 4t1 and MDA-MB-231 cells which were treated with 4 μM, 1 μM, 2 μM WFA, respectively. […] PCR experiments were repeated twice, and one representative experiment is shown as mean±SEM of 3 technical replicates. Flow cytometry experiments were performed twice and the mean±SEM of two representative experiments is shown. Treatments were compared to the control using one-way ANOVA and Fisher LSD post hoc test. * p<0.05, ** p<0.01, *** p<0.001, **** p<0.0001.
as §1, with “The sequences of PCR primers used are listed in Table 2 (Integrated DNA Technologies, Inc, Coralville, IA, USA).” left out

Each structure is given as a SMILES string.

For the molecule `CC1=C(CO)C(=O)O[C@@H]([C@@H](C)[C@H]2CC[C@H]3[C@@H]4C[C@H]5O[C@]56[C@@H](O)C=CC(=O)[C@]6(C)[C@H]4CC[C@]23C)C1` [WFA, Withaferin A], in assay [1], the Bax transcripts result is on record as “increased” and the Bcl-2 transcripts result is “reduced”. For the same molecule, the BAD transcripts entry in assay [1] (H1650 cells) is recorded as “increased”. Further, in assay [1] (LLC and A549), the Survivin transcripts entry is “reduced” and the Xiap transcripts entry is given as “reduced”. The Bak-1 transcripts entry in assay [1] (LLC cells) is listed as “increased”. In addition, the “IFN-α mRNA” value in assay [2] was “increased”.

For the origin of these results see US20240293430A1, “WITHAFERIN A AND IMMUNE CHECKPOINT BLOCKER COMBINATION THERAPIES” (University of South Florida, priority 2023, published 2024).
